Calls of active or inactive are those of the source. The calls are words filed in the database; no cut-off is given here.
Experiments:
[1] = Antitumor immunity against mouse RM1 cells homografted in C57BL/6 mouse model assessed as increase in tumor infiltrating lymphocytes at 5 mg/kg, iv administered every two days for 14 days by flow cytometry analysis (reference value: 5.26%); assay type: functional; conditions: time 14 day
[2] = test system: PC-3; assay: Induction of apoptosis in human PC-3 cells assessed as early apoptotic cells at 100 nM measured after 24 hrs by annexin V-FITC and PI staining based flow cytometry analysis (reference value: 1.03%); assay type: functional
[3] = test system: PC-3; assay: Induction of apoptosis in human PC-3 cells assessed as increase in p-bim-EL level at 50 to 200 nM incubated for 24 hrs by Western blot analysis; assay type: functional, cell-based; conditions: dose 50-200 nM
[4] = test system: A549; assay: Antiproliferative activity against human A549 cells assessed as inhibition of cell growth after 72 hrs by MTT assay; assay type: functional, cell-based; conditions: A549, 72 h
[5] = test system: Cell membrane; assay: Induction of mitochondrial membrane potential loss in human PC-3 cells assessed as increase in green fluorescence at 50 to 200 nM incubated for 24 hrs by JC-1 staining based confocal microscopy analysis; conditions: dose 50-200 nM
[6] = test system: PC-3; assay: Induction of intracellular ROS generation in human PC-3 cells incubated for 24 hrs by DCFH-DA staining based confocal microscopy based analysis; assay type: functional, cell-based; conditions: dose 50-200 nM
[7] = test system: PC-3; assay: Induction of cell cycle arrest in human PC-3 cells assessed as accumulation of cells at S phase at 100 nM incubated for 24 hrs by flow cytometry analysis (reference value: 31.3%); assay type: functional
[8] = test system: PC-3; assay: Induction of apoptosis in human PC-3 cells assessed as viable cells at 200 nM measured after 24 hrs by annexin V-FITC and PI staining based flow cytometry analysis (reference value: 90.6%); assay type: functional; conditions: read-out: Activity
[9] = test system: RM1; assay: Anticancer activity against mouse RM1 cells assessed as increase in CRT expression at 400 nM measured after 24 hrs by flow cytometry analysis; assay type: functional, cell-based
[10] = test system: PC-3; assay: Induction of immunogenic cell death in human PC-3 cells assessed as increase in CRT translocation to cell surface at 50 to 200 nM measured after 12 hrs by DAPI staining based analysis; assay type: functional; conditions: dose 50-200 nM
[11] = test system: PC-3; assay: Induction of immunogenic cell death in human PC-3 cells assessed as increase in HMGB1 release from nuclei at 50 to 200 nM measured after 24 hrs by DAPI staining based analysis; assay type: functional; conditions: dose 50-200 nM
[12] = test system: PC-3; assay: Inhibition of V-ATPase activity in human PC-3 cells at 200 nM measured after 24 hrs by colorimetric assay relative to control; assay type: cell-based
[13] = test system: PC-3; assay: Upregulation of intracellular eIF2alpha expression at […] residues in human PC-3 cells incubated for 24 hrs by DAPI staining based analysis; assay type: functional, cell-based; conditions: dose 50-200 nM
[14] = test system: PC-3; assay: Inhibition of V-ATPase activity in lysosomes of human PC-3 cells assessed as decrease in fluorescence at 50 to 200 nM incubated for 24 hrs by acridine orange staining based inverted fluorescent microscopic analysis; assay type: subcellular; conditions: Lysosome, dose 50-200 nM
[15] = test system: PC-3; assay: Inhibition of autophagy in human PC-3 cells assessed as decrease in colocalization region at 50 to 200 uM measured after 3 hrs by immunofluorescence imaging based analysis; assay type: functional, cell-based; conditions: dose 50-200 µM
[16] = test system: PC-3; assay: Induction of cell cycle arrest in human PC-3 cells assessed as accumulation of cells at G1 phase at 200 nM incubated for 24 hrs by flow cytometry analysis (reference value: 49.4%); assay type: functional
[17] = test system: PC-3; assay: Inhibition of V-ATPase activity in human PC-3 cells measured after 24 hrs by colorimetric assay; assay type: cell-based; conditions: dose 50-800 nM
[18] = test system: PC-3; assay: Induction of apoptosis in human PC-3 cells assessed as viable cells at 100 nM measured after 24 hrs by annexin V-FITC and PI staining based flow cytometry analysis (reference value: 90.6%); assay type: functional; conditions: read-out: Activity
[19] = Toxicity in ICR mouse assessed as effect on BUN level at 10 mg/kg, ip measured for 14 days; assay type: organism-based; conditions: in vivo, 336 h, time 14 day
[20] = test system: PC-3; assay: Inhibition of V-ATPase activity in human PC-3 cells at 50 nM measured after 24 hrs by colorimetric assay relative to control; assay type: cell-based
[21] = test system: A549; assay: Inhibition of cell migration in human A549 cells at upto 100 nM incubated for 24 hrs by inverted fluorescence microscope analysis; assay type: functional, cell-based
[22] = test system: RM1; assay: Antitumor immunity against mouse RM1 cells homografted in C57BL/6 mouse model assessed as increase in tumor infiltrating helper T lymphocytes in spleen at 5 to 10 mg/kg, iv administered every two days for 14 days by flow cytometry analysis; assay type: functional, organism-based; conditions: dose 5-10 mg/kg, time 14.0 day
[23] = test system: PC-3; assay: Induction of apoptosis in human PC-3 cells assessed as increase in ADP-ribose level at 50 to 200 nM incubated for 24 hrs by Western blot analysis; assay type: functional, cell-based; conditions: dose 50-200 nM
[24] = test system: DU-145; assay: Antiproliferative activity against human DU-145 cells assessed as inhibition of cell growth after 72 hrs by MTT assay; assay type: functional, cell-based; conditions: DU-145, 72 h
[25] = test system: HUVEC; assay: Disruption of vasculature in HUVEC cells assessed as interruption of tubelike network formation incubated for 6 hrs by inverted fluorescence microscope analysis; assay type: functional, cell-based; conditions: Homo sapiens, dose 50-200 nM
[26] = test system: PC-3; assay: Inhibition of V-ATPase activity in human PC-3 cells at 800 nM measured after 24 hrs by colorimetric assay relative to control; assay type: cell-based
[27] = Toxicity in ICR mouse assessed as effect on CRE level at 10 mg/kg, ip measured for 14 days; assay type: organism-based; conditions: in vivo, 336 h, time 14 day
[28] = Antitumor immunity against mouse RM1 cells homografted in C57BL/6 mouse model assessed as increase in tumor infiltrating helper T lymphocytes at 5 mg/kg, iv administered every two days for 14 days by flow cytometry analysis (reference value: 6.59%); assay type: functional; conditions: time 14 day
[29] = test system: PC-3; assay: Induction of cell cycle arrest in human PC-3 cells assessed as accumulation of cells at G2/M phase at 50 nM incubated for 24 hrs by flow cytometry analysis (reference value: 19.5%); assay type: functional
[30] = test system: PC-3; assay: Antiproliferative activity against human PC-3 cells assessed as inhibition of cell growth after 72 hrs by MTT assay; assay type: functional, cell-based; conditions: PC-3, 72 h
[31] = test system: PC-3; assay: Induction of immunogenic cell death in human PC-3 cells assessed as increase in CRT translocation to cell surface at 200 nM measured after 12 hrs in presence of TUDCA by DAPI staining based analysis; assay type: functional
[32] = test system: PC-3; assay: Induction of cell cycle arrest in human PC-3 cells assessed as accumulation of cells at G1 phase at 100 nM incubated for 24 hrs by flow cytometry analysis (reference value: 49.4%); assay type: functional
[33] = test system: PC-3; assay: Induction of endoplasmic reticulum (ER) stress in human PC-3 cells assessed as upregulation of CHOP phosphorylation level at 50 to 200 nM measured after 24 hrs by Western blot analysis; assay type: functional, cell-based; conditions: dose 50-200 nM
[34] = Antitumor activity against mouse RM1 cells homografted in C57BL/6 mouse model assessed as tumor growth inhibition at 10 mg/kg, iv administered every two days for 14 days by vernier caliper based analysis relative to control; assay type: functional; conditions: RM1, 336 h, time 14 day, read-out: TGI
[35] = test system: MDA-MB-231; assay: Antiproliferative activity against human MDA-MB-231 cells assessed as inhibition of cell growth after 72 hrs by MTT assay; assay type: functional, cell-based; conditions: MDA-MB-231, 72 h

**Q.** Which Activity [1] does the source give for `COc1cc(-c2nc(C(N)=O)cc3cc4c(cc23)OCCO4)cc(Br)c1OC` here?
**A.** The Activity was 7.01%.

**Q.** And the Activity [2]?
**A.** Its Activity is 21.6%.

**Q.** What about the Activity [3] of the same molecule?
**A.** Its Activity is “Active”.

**Q.** And the IC50 [4]?
**A.** Its IC50 is 0.09 µM.

**Q.** What about the Activity [5] of the same molecule?
**A.** The Activity was “Active”.

**Q.** And the Activity [6]?
**A.** The Activity was “Dose-Dependent Effect”.

**Q.** And the Activity [7]?
**A.** The Activity was 22.3%.

**Q.** And the viability at 0.2 µM [8]?
**A.** The viability at 0.2 µM was 50.9%.

**Q.** And the Activity [9]?
**A.** The Activity was “Active”.

**Q.** And the Activity [10]?
**A.** The Activity was “Active”.

**Q.** And the Activity [11]?
**A.** The Activity was “Active”.

**Q.** What about the inhibition [12] of the same molecule?
**A.** Its inhibition is 36.7%.

**Q.** What about the Activity [13] of the same molecule?
**A.** The Activity was “Dose-Dependent Effect”.

**Q.** And the inhibition [14]?
**A.** The inhibition was “Active”.

**Q.** And the inhibition [15]?
**A.** Its inhibition is “Active”.

**Q.** What about the Activity [16] of the same molecule?
**A.** The Activity was 17.9%.

**Q.** What about the inhibition [17] of the same molecule?
**A.** Its inhibition is “Dose-Dependent Effect”.

**Q.** What about the viability at 0.1 µM [18] of the same molecule?
**A.** The viability at 0.1 µM was 61.7%.

**Q.** What about the Activity [19] of the same molecule?
**A.** Its Activity is “Non-Toxic”.

**Q.** What about the inhibition [20] of the same molecule?
**A.** Its inhibition is 15.8%.

**Q.** And the inhibition [21]?
**A.** Its inhibition is “Active”.

**Q.** What about the Activity [22] of the same molecule?
**A.** Its Activity is “Active”.

**Q.** What about the Activity [23] of the same molecule?
**A.** Its Activity is “Active”.

**Q.** And the IC50 [24]?
**A.** The IC50 was 0.11 µM.

**Q.** And the Activity [25]?
**A.** The Activity was “Active”.

**Q.** And the inhibition [26]?
**A.** The inhibition was 77.4%.

**Q.** And the Activity [27]?
**A.** The Activity was “Non-Toxic”.

**Q.** What about the Activity [28] of the same molecule?
**A.** Its Activity is 10.9%.

**Q.** What about the Activity [29] of the same molecule?
**A.** Its Activity is 30.9%.

**Q.** And the IC50 [30]?
**A.** Its IC50 is 0.06 µM.

**Q.** What about the Activity [31] of the same molecule?
**A.** The Activity was “inactive”.

**Q.** And the Activity [32]?
**A.** Its Activity is 34.1%.

**Q.** And the Activity [33]?
**A.** Its Activity is “Active”.

**Q.** What about the inhibition in vivo at 10 mg/kg [34] of the same molecule?
**A.** Its inhibition in vivo at 10 mg/kg is 70.2%.

**Q.** What about the IC50 [35] of the same molecule?
**A.** The IC50 was 0.13 µM.

From ChEMBL document CHEMBL5528053, “Discovery of Novel Isoquinoline Analogues as Dual Tubulin Polymerization/V-ATPase Inhibitors with Immunogenic Cell Death Induction” (J Med Chem, 2024)
